Values joined by “and” are separate entries in the source; they are usually repeats but may differ in a detail not shown here. Equal entries are not always repeated. Toxic doses and inconclusive results are not listed.
Test system: P388 leukemia ip, CD2F1 mice, survival T/C
Test: NCI In Vivo Anticancer Drug Screen. Data for tumor model P388 Leukemia (intraperitoneal) in CD2F1 (CDF1) mice
Conditions: endpoint: median survival time, higher = longer survival
How it was run: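 Mice carrying the transplanted tumor received test compound or vehicle. Survival was recorded in each group, and the value is the treated-group measurement divided by that of the vehicle-treated control group.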

O=NN(CCCl)C(=O)NCCCl
T/C (dose: 1.0 mg/kg/injection, schedule: Q01DX001 (ip), vehicle: Klucel (hydroxypropylcellulose) (HPC)): 122 % of control
T/C (dose: 1.0 mg/kg/injection, schedule: Q01DX001 (ip), vehicle: saline with Tween-80): 115 % of control
T/C (dose: 1.0 mg/kg/injection, schedule: Q01DX001 (ip), vehicle: suspension in saline): 107 % of control
T/C (dose: 1.0 mg/kg/injection, schedule: Q01DX005 (ip), vehicle: saline + alcohol): 112 % of control
T/C (dose: 2.0 mg/kg/injection, schedule: Q01DX001 (ip), vehicle: Klucel (hydroxypropylcellulose) (HPC)): 112 % of control
T/C (dose: 2.0 mg/kg/injection, schedule: Q01DX001 (ip), vehicle: saline with Tween-80): 107 % of control
T/C (dose: 2.0 mg/kg/injection, schedule: Q01DX001 (ip), vehicle: suspension in saline): 117 % of control
T/C (dose: 2.0 mg/kg/injection, schedule: Q01DX009 (ip), vehicle: other): 163 % of control and 175 % of control
T/C (dose: 2.0 mg/kg/injection, schedule: Q01DX009 (ip), vehicle: saline with Tween-80): 173 % of control
T/C (dose: 2.5 mg/kg/injection, schedule: Q04DX003 (iv), vehicle: saline + alcohol): 152 % of control
T/C (dose: 3.24 mg/kg/injection, schedule: Q04DX003 (ip), vehicle: saline + alcohol): 208 % of control
T/C (dose: 3.3 mg/kg/injection, schedule: Q01DX005 (ip), vehicle: Klucel (hydroxypropylcellulose) (HPC)): 267 % of control
T/C (dose: 3.3 mg/kg/injection, schedule: Q01DX005 (ip), vehicle: saline + alcohol): 250 % of control and 265 % of control
T/C (dose: 3.3 mg/kg/injection, schedule: Q01DX009 (ip), vehicle: saline + alcohol): 183 % of control
T/C (dose: 3.75 mg/kg/injection, schedule: Q04DX003 (ip), vehicle: saline): 176 % of control
T/C (dose: 3.89 mg/kg/injection, schedule: Q04DX003 (ip), vehicle: saline + alcohol): 178 % of control
T/C (dose: 4.0 mg/kg/injection, schedule: Q01DX001 (ip), vehicle: saline + alcohol): 123 % of control
T/C (dose: 4.0 mg/kg/injection, schedule: Q01DX005 (ip), vehicle: saline + alcohol): 170 % of control
T/C (dose: 4.0 mg/kg/injection, schedule: Q01DX009 (ip), vehicle: other): 215 % of control and 287 % of control
T/C (dose: 4.0 mg/kg/injection, schedule: Q01DX009 (ip), vehicle: saline with Tween-80): 262 % of control
T/C (dose: 4.4 mg/kg/injection, schedule: Q01DX005 (ip), vehicle: saline + alcohol): 222 % of control
T/C (dose: 5.0 mg/kg/injection, schedule: Q04DX003 (ip), vehicle: saline + alcohol): 206 % of control
T/C (dose: 5.0 mg/kg/injection, schedule: Q04DX003 (iv), vehicle: saline + alcohol): 177 % of control
T/C (dose: 5.4 mg/kg/injection, schedule: Q04DX003 (ip), vehicle: saline + alcohol): 185 % of control
T/C (dose: 6.48 mg/kg/injection, schedule: Q04DX002 (ip), vehicle: saline + alcohol): 163 % of control and 169 % of control
T/C (dose: 6.48 mg/kg/injection, schedule: Q04DX003 (ip), vehicle: saline + alcohol): 219 % of control
T/C (dose: 6.6 mg/kg/injection, schedule: Q01DX005 (ip), vehicle: saline + alcohol): 305 % of control
T/C (dose: 7.5 mg/kg/injection, schedule: Q01DX001 (iv), vehicle: saline + alcohol): 164 % of control
T/C (dose: 7.5 mg/kg/injection, schedule: Q04DX003 (ip), vehicle: saline): 219 % of control
T/C (dose: 8.0 mg/kg/injection, schedule: Q01DX001 (ip), vehicle: Klucel (hydroxypropylcellulose) (HPC)): 171 % of control
T/C (dose: 8.0 mg/kg/injection, schedule: Q01DX001 (ip), vehicle: suspension in saline): 166 % of control
T/C (dose: 8.0 mg/kg/injection, schedule: Q01DX001 (ip), vehicle: water): 200 % of control
T/C (dose: 8.0 mg/kg/injection, schedule: Q01DX005 (ip), vehicle: saline + alcohol): 254 % of control
T/C (dose: 8.0 mg/kg/injection, schedule: Q01DX009 (ip), vehicle: other): 264 % of control and 370 % of control
T/C (dose: 8.0 mg/kg/injection, schedule: Q01DX009 (ip), vehicle: saline with Tween-80): 297 % of control
T/C (dose: 9.0 mg/kg/injection, schedule: Q04DX003 (ip), vehicle: saline + alcohol): 180 % of control
T/C (dose: 10.0 mg/kg/injection, schedule: Q01DX005 (ip), vehicle: Klucel (hydroxypropylcellulose) (HPC)): 123 % of control
T/C (dose: 10.0 mg/kg/injection, schedule: Q01DX009 (ip), vehicle: Klucel (hydroxypropylcellulose) (HPC)): 98 % of control
T/C (dose: 10.0 mg/kg/injection, schedule: Q01DX009 (ip), vehicle: saline): 240 % of control
T/C (dose: 10.0 mg/kg/injection, schedule: Q04DX003 (ip), vehicle: saline + alcohol): 320 % of control
T/C (dose: 10.0 mg/kg/injection, schedule: Q04DX003 (iv), vehicle: saline + alcohol): 265 % of control
T/C (dose: 10.8 mg/kg/injection, schedule: Q04DX002 (ip), vehicle: saline + alcohol): 200 % of control and 206 % of control
T/C (dose: 10.8 mg/kg/injection, schedule: Q04DX003 (ip), vehicle: saline + alcohol): 295 % of control
T/C (dose: 12.5 mg/kg/injection, schedule: Q01DX005 (ip), vehicle: saline with Tween-80): 275 % of control and 315 % of control
T/C (dose: 15.0 mg/kg/injection, schedule: Q01DX001 (iv), vehicle: saline + alcohol): 222 % of control
T/C (dose: 15.0 mg/kg/injection, schedule: Q01DX009 (ip), vehicle: saline): 300 % of control
T/C (dose: 15.0 mg/kg/injection, schedule: Q04DX003 (ip), vehicle: saline + alcohol): 336 % of control
T/C (dose: 15.0 mg/kg/injection, schedule: Q04DX003 (ip), vehicle: saline): 355 % of control
T/C (dose: 16.0 mg/kg/injection, schedule: Q01DX001 (ip), vehicle: Klucel (hydroxypropylcellulose) (HPC)): 210 % of control
T/C (dose: 16.0 mg/kg/injection, schedule: Q01DX001 (ip), vehicle: saline with Tween-80): 192 % of control and 240 % of control
T/C (dose: 16.0 mg/kg/injection, schedule: Q01DX001 (ip), vehicle: suspension in saline): 186 % of control
T/C (dose: 16.0 mg/kg/injection, schedule: Q01DX001 (ip), vehicle: water): 429 % of control
T/C (dose: 16.0 mg/kg/injection, schedule: Q01DX001 (oral), vehicle: saline with Tween-80): 163 % of control
T/C (dose: 16.0 mg/kg/injection, schedule: Q01DX005 (ip), vehicle: saline + alcohol): 409 % of control
T/C (dose: 16.0 mg/kg/injection, schedule: Q01DX009 (ip), vehicle: other): 111 % of control and 120 % of control
T/C (dose: 16.0 mg/kg/injection, schedule: Q01DX009 (ip), vehicle: saline with Tween-80): 118 % of control
T/C (dose: 18.0 mg/kg/injection, schedule: Q04DX002 (ip), vehicle: saline + alcohol): 250 % of control and 254 % of control
T/C (dose: 18.0 mg/kg/injection, schedule: Q04DX003 (ip), vehicle: saline + alcohol): 419 % of control
T/C (dose: 20.0 mg/kg/injection, schedule: Q01DX001 (ip), vehicle: Klucel (hydroxypropylcellulose) (HPC)): 241 % of control
T/C (dose: 20.0 mg/kg/injection, schedule: Q04DX003 (ip), vehicle: saline + alcohol): 165 % of control
T/C (dose: 20.0 mg/kg/injection, schedule: Q04DX003 (iv), vehicle: saline + alcohol): 291 % of control
T/C (dose: 24.0 mg/kg/injection, schedule: Q01DX001 (ip), vehicle: saline): 230 % of control
T/C (dose: 25.0 mg/kg/injection, schedule: Q01DX005 (ip), vehicle: saline with Tween-80): 184 % of control
T/C (dose: 25.0 mg/kg/injection, schedule: Q04DX003 (ip), vehicle: saline + alcohol): 233 % of control
T/C (dose: 30.0 mg/kg/injection, schedule: Q01DX001 (iv), vehicle: saline + alcohol): 352 % of control
T/C (dose: 30.0 mg/kg/injection, schedule: Q01DX009 (ip), vehicle: saline): 110 % of control
T/C (dose: 30.0 mg/kg/injection, schedule: Q04DX002 (ip), vehicle: saline + alcohol): 416 % of control and 441 % of control
T/C (dose: 30.0 mg/kg/injection, schedule: Q04DX003 (ip), vehicle: saline + alcohol): 166 % of control
T/C (dose: 30.0 mg/kg/injection, schedule: Q04DX003 (ip), vehicle: saline): 441 % of control
T/C (dose: 31.25 mg/kg/injection, schedule: Q01DX001 (ip), vehicle: saline with Tween-80): 275 % of control
T/C (dose: 32.0 mg/kg/injection, schedule: Q01DX001 (ip), vehicle: Klucel (hydroxypropylcellulose) (HPC)): 269 % of control
T/C (dose: 32.0 mg/kg/injection, schedule: Q01DX001 (ip), vehicle: saline with Tween-80): 272 % of control and 588 % of control
T/C (dose: 32.0 mg/kg/injection, schedule: Q01DX001 (ip), vehicle: saline): 606 % of control
T/C (dose: 32.0 mg/kg/injection, schedule: Q01DX001 (ip), vehicle: suspension in saline): 289 % of control
T/C (dose: 32.0 mg/kg/injection, schedule: Q01DX001 (ip), vehicle: water): 429 % of control
T/C (dose: 32.0 mg/kg/injection, schedule: Q01DX001 (oral), vehicle: saline with Tween-80): 227 % of control
T/C (dose: 40.0 mg/kg/injection, schedule: Q01DX001 (ip), vehicle: Klucel (hydroxypropylcellulose) (HPC)): 267 % of control
T/C (dose: 62.5 mg/kg/injection, schedule: Q01DX001 (ip), vehicle: saline with Tween-80): 275 % of control and 297 % of control
T/C (dose: 64.0 mg/kg/injection, schedule: Q01DX001 (ip), vehicle: saline with Tween-80): 107 % of control and 58 % of control
T/C (dose: 64.0 mg/kg/injection, schedule: Q01DX001 (ip), vehicle: suspension in saline): 161 % of control
T/C (dose: 64.0 mg/kg/injection, schedule: Q01DX001 (oral), vehicle: saline with Tween-80): 118 % of control
T/C (dose: 80.0 mg/kg/injection, schedule: Q01DX001 (ip), vehicle: Klucel (hydroxypropylcellulose) (HPC)): 267 % of control
T/C (dose: 128.0 mg/kg/injection, schedule: Q01DX001 (ip), vehicle: Klucel (hydroxypropylcellulose) (HPC)): 98 % of control
T/C (dose: 128.0 mg/kg/injection, schedule: Q01DX001 (ip), vehicle: saline with Tween-80): 98 % of control and 58 % of control
T/C (dose: 128.0 mg/kg/injection, schedule: Q01DX001 (ip), vehicle: suspension in saline): 107 % of control

Source: PubChem BioAssay AID330 (DTP/NCI, 2004)
